# In US6794492B2, “Perfluoroalkyl compounds and their methods of use and manufacture” (Clemson University, priority 2000, dated 2004):
# Legend:
# lung tumor cell line = assay: NCI in vitro anti-tumor screen, three-cell line evaluation (SRB protein assay), lung; type: cell-based, human; details: sample concentration 5.00 E-05 Molar, 48 hour continuous drug exposure
# Description: The testing below was conducted by the United States Public Health Service, Department of Health and Human Services. The National Cancer Institute (NCl) in vitro anti-tumor screening test consists of about 60 human tumor cell lines against which compounds are tested at a minimum of 5 concentrations at 10 fold dilutions. A 48 hour continuous drug exposure protocol is used, and a sulforhodamine B (SRB) protein assay is used to estimate cell viability or growth.
# (§1) Data for the compound shown in the attached FIG. 3 which was tested according to the National Cancer Institutes Developmental Theraputics Program (dose response curves) is shown in attached FIG. 13.
# breast tumor cell line = assay: NCI in vitro anti-tumor screen, three-cell line evaluation (SRB protein assay), breast; type: cell-based, human; details: sample concentration 5.00 E-05 Molar, 48 hour continuous drug exposure
# Description: The testing below was conducted by the United States Public Health Service, Department of Health and Human Services. […] A 48 hour continuous drug exposure protocol is used, and a sulforhodamine B (SRB) protein assay is used to estimate cell viability or growth.
# as §1
# CNS tumor cell line = assay: NCI in vitro anti-tumor screen, three-cell line evaluation (SRB protein assay), CNS; type: cell-based, human; details: sample concentration 5.00 E-05 Molar, 48 hour continuous drug exposure
# human tumor cell lines = assay: NCI three-cell line evaluation, overall activity call; type: cell-based; details: three-cell line (lung, breast, CNS); 5.00 E-05 Molar
structure (smiles),measurement,setting,value
CC[C@H](C)[C@H](NC(=O)[C@H](Cc1ccc(O)cc1)NCC(F)(F)F)C(=O)OC(C)(C)C [S712619],Growth Percentages lung,lung tumor cell line,−77%
same,Growth Percentages breast,breast tumor cell line,−57%
same,Growth Percentages CNS,CNS tumor cell line,−75%
same,activity,human tumor cell lines,active
